From US20260097083A1, “METHOD FOR PRODUCING PANCREATIC ENDODERM CELLS” (Kyoto University, priority 2022, published 2026)

System: pancreatic endoderm cells derived from ES cells (KhES-3 line)
Assay: Expansion culture of pancreatic endoderm cells derived from ES cells
Format: cell-based, human
Protocol: PDX1^+/NKX6.1^+ pancreatic endoderm cells were produced from iPS cells (585A1 line) or ES cells (KhES-3 line) on a 6-well plate using the method by Toyoda et al. (Toyoda T, et al. Stem Cell Reports 2017). Briefly, the undifferentiated cells above were seeded at 1×10^6/well on a 6-well plate coated with iMatrix-511 silk. The cells were cultured in RPMI to which an S1 culture medium (1×B-27 Supplement, 100 U/ml penicillin/streptomycin, 100 ng/ml activin A, and CHIR99021 (Day 1: 3 μM, Days 2 and 3: 1 μM, and Day 4: 0 μM)) had been added for 4 days, in an S2 culture medium (improved MEM to which 0.5×B-27 Supplement, 100 U/ml penicillin/streptomycin, and 50 ng/ml KGF/FGF7 had been added) for 5 days, and in an S3 culture medium (improved MEM to which 0.5×B-27 Supplement, 100 U/ml penicillin/streptomycin, 50 ng/ml KGF/FGF7, 0.2 μM LDN-193189, 0.1 μM SANT-1, and 10 nM TTNPB had been added) for 2 days. The cells were detached from the 6-well plate using trypsin, and were reseeded on a 6-well plate coated with iMatrix-511 silk at 1.5×10^6/well using the S3 culture medium again. […] (5) The cells were suspended in improved MEM (containing 10 μM Y-27632, 0.5×B-27 Supplement, and 100 U/ml penicillin/streptomycin), and were counted. […]

C[C@@H](N)[C@H]1CC[C@H](C(=O)Nc2ccncc2)CC1 [Y-27632]
expansion culture of the pancreatic endoderm cells (FIG. 4-H): similarly possible
cell (nuclear) shape (Y-27632 10 μM, passaged 5 times (5 weeks), FIGS. 5-B and 5-C): changed their shape (elongated elliptical shape)
